Data: patent publication US12252701B2, “Chimeric antigen receptor T cell therapy” (KITE PHARMA, INC., priority 2020, dated 2025)
Read-outs that look alike come from different tables or passages of the source.

Experiments:
[1] = cited from earlier work
CAR-T cells = assay: CAR-T cell expansion assay (KIP-1 or CD3/CD28 stimulation); settings: for % viabili.: CD3/CD28 stimulation; for % viabi.: KIP-1 stimulation
CD19 CAR T cells = assay: CAR T cell cytokine production (Luminex) under CD19 K562, KIP-1 or CD2/3/28 stimulation; settings: 72 h; for IC50: Homo sapiens, T-cell

CCS(=O)(=O)N1CC(CC#N)(n2cc(-c3ncnc4[nH]ccc34)cn2)C1 [baricitinib]
Cmax ([1]; clinical dosing 2 mg daily, cell prints (nM)): 45.7 nM | Protein binding ([1]; plasma protein binding, reported): 50% | % viability (CAR-T cells; CD3/CD28, dose 5 nM, day 4): 72.9% | % viability (CAR-T cells; CD3/CD28, dose 5 nM, day 8): 55.7% | % viability (CAR-T cells; CD3/CD28, dose 5 nM, day 12): 83.1% | % viability (CAR-T cells; CD3/CD28, dose 10 nM, day 4): 70.7% | % viability (CAR-T cells; CD3/CD28, dose 10 nM, day 12): 84.7% | % viabili. (CAR-T cells; 10 nM, Day 0): 84% | % viabili. (CAR-T cells; 10 nM, Day 4): 82.3% | % viabili. (CAR-T cells; 10 nM, Day 8): 90.2% | % viabili. (CAR-T cells; 10 nM, Day 12): 80.2% | % viabili. (CAR-T cells; 20 nM, Day 0): 84% | % viabili. (CAR-T cells; 20 nM, Day 4): 86.4% | % viabili. (CAR-T cells; 20 nM, Day 8): 82.5% | % viabili. (CAR-T cells; 20 nM, Day 12): 76.7% | % viabili. (CAR-T cells; 40 nM, Day 0): 84% | % viabili. (CAR-T cells; 40 nM, Day 4): 89.8% | % viabili. (CAR-T cells; 40 nM, Day 8): 85.7% | % viabili. (CAR-T cells; 40 nM, Day 12): 74.7% | % viabili. (CAR-T cells; 60 nM, Day 0): 84% | % viabili. (CAR-T cells; 60 nM, Day 4): 91.7% | % viabili. (CAR-T cells; 60 nM, Day 8): 91.3% | % viabili. (CAR-T cells; 60 nM, Day 12): 71.5% | % viabili. (CAR-T cells; 80 nM, Day 0): 84% | % viabili. (CAR-T cells; 80 nM, Day 4): 91.1% | % viabili. (CAR-T cells; 80 nM, Day 8): 83.6% | % viabili. (CAR-T cells; 80 nM, Day 12): 67.7% | % viabili. (CAR-T cells; 100 nM, Day 0): 84% | % viabili. (CAR-T cells; 100 nM, Day 4): 86.8% | % viabili. (CAR-T cells; 100 nM, Day 8): 73.3% | % viabili. (CAR-T cells; 100 nM, Day 12): 76.3% | % viability (CAR-T cells; KIP-1, dose 10 nM, day 8): 58.7% | % viabi. (CAR-T cells; 10 nM, Day 0): 84% | % viabi. (CAR-T cells; 10 nM, Day 4): 64.7% | % viabi. (CAR-T cells; 10 nM, Day 8): 55.2% | % viabi. (CAR-T cells; 10 nM, Day 12): 70.4% | % viabi. (CAR-T cells; 20 nM, Day 0): 84% | % viabi. (CAR-T cells; 20 nM, Day 4): 61.3% | % viabi. (CAR-T cells; 20 nM, Day 8): 78% | % viabi. (CAR-T cells; 20 nM, Day 12): 73.5% | % viabi. (CAR-T cells; 40 nM, Day 0): 84% | % viabi. (CAR-T cells; 40 nM, Day 4): 65% | % viabi. (CAR-T cells; 40 nM, Day 8): 77.8% | % viabi. (CAR-T cells; 40 nM, Day 12): 68.8% | % viabi. (CAR-T cells; 60 nM, Day 0): 84% | % viabi. (CAR-T cells; 60 nM, Day 4): 57.8% | % viabi. (CAR-T cells; 60 nM, Day 8): 57.6% | % viabi. (CAR-T cells; 60 nM, Day 12): 70.8% | % viabi. (CAR-T cells; 80 nM, Day 0): 84% | % viabi. (CAR-T cells; 80 nM, Day 4): 66.2% | % viabi. (CAR-T cells; 80 nM, Day 8): 69.4% | % viabi. (CAR-T cells; 80 nM, Day 12): 69.5% | % viabi. (CAR-T cells; 100 nM, Day 0): 84% | % viabi. (CAR-T cells; 100 nM, Day 4): 67.7% | % viabi. (CAR-T cells; 100 nM, Day 8): 78.1% | % viabi. (CAR-T cells; 100 nM, Day 12): 65.2%

N#CCC1(n2cc(-c3ncnc4[nH]ccc34)cn2)CN(C2CCN(C(=O)c3ccnc(C(F)(F)F)c3F)CC2)C1 [itacitinib]
IC50 (CD19 CAR T cells; read-out: Suppression of cytokine production, GMCSF (IC50), CD3/CD28 stimulation, 72 h): < 100 nM | IC50 (CD19 CAR T cells; read-out: Suppression of cytokine production, GMCSF (IC50), K562-CD19 stimulation, 72 h): 377 nM | IC50 (CD19 CAR T cells; read-out: Suppression of cytokine production, GMCSF (IC50), KIP-1 stimulation, 72 h): 273 nM | IC50 (CD19 CAR T cells; read-out: Suppression of cytokine production, GzB (IC50), CD3/CD28 stimulation, 72 h): 2740 nM | IC50 (CD19 CAR T cells; read-out: Suppression of cytokine production, GzB (IC50), K562-CD19 stimulation, 72 h): > 10000 nM | IC50 (CD19 CAR T cells; read-out: Suppression of cytokine production, GzB (IC50), KIP-1 stimulation, 72 h): > 10000 nM | IC50 (CD19 CAR T cells; read-out: Suppression of cytokine production, IFNg (IC50), CD3/CD28 stimulation, 72 h): > 10000 nM | IC50 (CD19 CAR T cells; read-out: Suppression of cytokine production, IFNg (IC50), KIP-1 stimulation, 72 h): > 10000 nM | IC50 (CD19 CAR T cells; read-out: Suppression of cytokine production, IL-2Ra (IC50), CD3/CD28 stimulation, 72 h): 144 nM | IC50 (CD19 CAR T cells; read-out: Suppression of cytokine production, IL-2Ra (IC50), K562-CD19 stimulation, 72 h): < 100 nM | IC50 (CD19 CAR T cells; read-out: Suppression of cytokine production, IL-2Ra (IC50), KIP-1 stimulation, 72 h): < 100 nM | IC50 (CD19 CAR T cells; read-out: Suppression of cytokine production, IL-6 (IC50), CD3/CD28 stimulation, 72 h): < 100 nM | IC50 (CD19 CAR T cells; read-out: Suppression of cytokine production, IL-6 (IC50), KIP-1 stimulation, 72 h): 1970 nM | IC50 (CD19 CAR T cells; read-out: Suppression of cytokine production, IL-8 (IC50), CD3/CD28 stimulation, 72 h): < 100 nM | IC50 (CD19 CAR T cells; read-out: Suppression of cytokine production, IL-8 (IC50), K562-CD19 stimulation, 72 h): < 100 nM | IC50 (CD19 CAR T cells; read-out: Suppression of cytokine production, IL-8 (IC50), KIP-1 stimulation, 72 h): < 100 nM | IC50 (CD19 CAR T cells; read-out: Suppression of cytokine production, IL-10 (IC50), CD3/CD28 stimulation, 72 h): < 100 nM | IC50 (CD19 CAR T cells; read-out: Suppression of cytokine production, IL-10 (IC50), K562-CD19 stimulation, 72 h): < 100 nM | IC50 (CD19 CAR T cells; read-out: Suppression of cytokine production, IL-10 (IC50), KIP-1 stimulation, 72 h): < 100 nM | IC50 (CD19 CAR T cells; read-out: Suppression of cytokine production, MCP-1 (IC50), CD3/CD28 stimulation, 72 h): < 100 nM | IC50 (CD19 CAR T cells; read-out: Suppression of cytokine production, MCP-1 (IC50), K562-CD19 stimulation, 72 h): < 100 nM | IC50 (CD19 CAR T cells; read-out: Suppression of cytokine production, MCP-1 (IC50), KIP-1 stimulation, 72 h): 2580 nM | IC50 (CD19 CAR T cells; read-out: Suppression of cytokine production, MIG (IC50), CD3/CD28 stimulation, 72 h): 549 nM | IC50 (CD19 CAR T cells; read-out: Suppression of cytokine production, MIG (IC50), K562-CD19 stimulation, 72 h): < 100 nM | IC50 (CD19 CAR T cells; read-out: Suppression of cytokine production, MIG (IC50), KIP-1 stimulation, 72 h): < 100 nM | IC50 (CD19 CAR T cells; read-out: Suppression of cytokine production, MIP-1a (IC50), CD3/CD28 stimulation, 72 h): 361 nM | IC50 (CD19 CAR T cells; read-out: Suppression of cytokine production, MIP-1a (IC50), K562-CD19 stimulation, 72 h): 167 nM | IC50 (CD19 CAR T cells; read-out: Suppression of cytokine production, MIP-1a (IC50), KIP-1 stimulation, 72 h): 1420 nM | IC50 (CD19 CAR T cells; read-out: Suppression of cytokine production, MIP-1b (IC50), CD3/CD28 stimulation, 72 h): < 100 nM | IC50 (CD19 CAR T cells; read-out: Suppression of cytokine production, MIP-1b (IC50), K562-CD19 stimulation, 72 h): 149 nM | IC50 (CD19 CAR T cells; read-out: Suppression of cytokine production, MIP-1b (IC50), KIP-1 stimulation, 72 h): 553 nM | IC50 (CD19 CAR T cells; read-out: Suppression of cytokine production, Perforin (IC50), CD3/CD28 stimulation, 72 h): 1600 nM | IC50 (CD19 CAR T cells; read-out: Suppression of cytokine production, Perforin (IC50), K562-CD19 stimulation, 72 h): < 100 nM | IC50 (CD19 CAR T cells; read-out: Suppression of cytokine production, Perforin (IC50), KIP-1 stimulation, 72 h): 431 nM | IC50 (CD19 CAR T cells; read-out: Suppression of cytokine production, TNFa (IC50), CD3/CD28 stimulation, 72 h): < 100 nM | IC50 (CD19 CAR T cells; read-out: Suppression of cytokine production, TNFa (IC50), K562-CD19 stimulation, 72 h): < 100 nM | IC50 (CD19 CAR T cells; read-out: Suppression of cytokine production, TNFa (IC50), KIP-1 stimulation, 72 h): 320 nM | Suppression of cytokine production, IFNg (IC50) (CD19 CAR T cells; K562-CD19 stimulation): Suppress | Suppression of cytokine production, IL-6 (IC50) (CD19 CAR T cells; K562-CD19 stimulation): Suppress
